Laboratory results taken from ChEMBL document CHEMBL3739280, “12,17-Cyclojatrophane and Jatrophane Constituents of Euphorbia welwitschii” (J Nat Prod, 2015).

Columns and labels:
[1] = Antiproliferative activity against human EPG85-257RDB cells after 5 days by SRB assay; type: functional, cell-based; conditions: 120 h
[2] = Resistance index, ratio IC50 for human EPG85-257RDB cells to IC50 for human EPG85-257 cells; type: functional
[3] = Antiproliferative activity against human EPP85-181RN cells after 5 days by SRB assay; type: functional, cell-based; conditions: 120 h
[4] = Resistance index, ratio IC50 for human EPP85-181RN cells to IC50 for human EPP85-181P cells; type: functional
[5] = Antiproliferative activity against human EPP85-181RDB cells after 5 days by SRB assay; type: functional, cell-based; conditions: 120 h
[6] = Resistance index, ratio IC50 for human EPP85-181RDB cells to IC50 for human EPP85-181P cells; type: functional

SMILES | IC50 [1] | Ratio IC50 [2] | IC50 [3] | Ratio IC50 [4] | IC50 [5] | Ratio IC50 [6]
C=C1[C@H](OC(=O)C(C)C)[C@@H](OC(=O)C(C)C)[C@@H](OC(=O)c2cccnc2)C(C)(C)[C@H](O)[C@H]2O[C@@]3(C[C@H](C)[C@H](OC(C)=O)[C@@H]3[C@H]1OC(C)=O)C(=O)[C@H]2C | 17.2 µM | 0.6 |  |  |  | 
C=C1[C@H](OC(=O)C(C)C)[C@@H](OC(=O)C(C)C)[C@@H](OC(=O)c2cccnc2)C(C)(C)[C@H]2O[C@@H]2[C@@H](C)C(=O)[C@@]2(O)C[C@H](C)[C@H](OC(C)=O)[C@@H]2[C@H]1OC(C)=O | 3.6 µM | 0.1 | 21.3 µM | 0.7 | 18.2 µM | 0.6
